Data taken from paper PMC3201940, “A Robust and Rapid Method of Producing Soluble, Stable, and Functional G-Protein Coupled Receptors” (PLoS ONE, 2011).

Target: T1, hVN1R1 (Homo sapiens, UniProt Q9GZP7)
T1 construct: gene VN1R1
T1 sequence (Q9GZP7 1-353): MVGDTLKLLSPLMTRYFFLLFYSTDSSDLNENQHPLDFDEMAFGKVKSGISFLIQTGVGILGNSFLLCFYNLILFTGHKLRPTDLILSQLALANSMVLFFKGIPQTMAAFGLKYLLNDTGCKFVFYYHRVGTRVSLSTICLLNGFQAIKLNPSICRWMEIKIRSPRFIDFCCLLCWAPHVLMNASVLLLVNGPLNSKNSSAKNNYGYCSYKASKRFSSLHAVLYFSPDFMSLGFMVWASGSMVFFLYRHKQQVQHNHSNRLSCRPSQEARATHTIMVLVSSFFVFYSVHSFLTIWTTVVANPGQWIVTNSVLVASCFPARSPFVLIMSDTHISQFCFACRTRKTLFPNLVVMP
Test: label-free microscale thermophoresis (tryptophan fluorescence), purified receptor, heat-denatured control
Assay type: binding

EC50: 3.5 ± 0.7 µM
SMILES: C=C(C)C1CC=C(C)C(O)C1 (mixture of isomers) [carveol]
